Experimental data from patent US20200029601A1, “PHENYLACRYLIC ACID SOLUTION FOR BROAD SPECTRUM ANTIMICROBIAL APPLICATIONS FOR FOODSTUFFS” (KLF LABS LLC, priority 2018, published 2020).
Where two headings read alike, the source gives them in different places.

Columns and labels:
Saccharomyces cerevisiae [1] = assay: Yeast growth in sterile model beverage (Experimental Test 5); type: cell-based; settings: 300 ppm; model beverage at 4° C.; 72 hours
Description: Application experiments were set up using a model beverage. The formulations were tested against Saccharomyces cerevisiae, a yeast well recognized for its beverage spoiling quality. A sterile model beverage was prepared using the formulation indicated in Table 19, with an initial inoculation quantity of 10^4 cells/mL of beverage. […] The OD 660 of each sample was measured 72 hours after initial inoculation using an 8543 Spectrophotometer and the data was compiled using excel, as depicted in Table 20.

Candida parapsilosis = assay: microbe, parasite or virus in culture; settings: Lodderomyces parapsilosis, 48 h
Description: (§1) The media was then sterilized by steam autoclaving the solution for 15 minutes at 121° C. and the media was placed into 3 96 cell plates and pH using either 0.1N HCl or 0.1N NaOH to pH values of 3.1, 5.6, 6.0, 6.5, 7.0, and 7.5.
(§2) Three exemplary embodiment solutions were added and serial diluted into a series of treatment wells and 0.5 McFarland Standard's worth of yeast cells were added to each well. The plates were incubated at 32° C. for 48 hours and then the OD was read at 600 nm. The percent inhibition was graphed as a percentage of the following formula indicated in Equation 1.

Saccharomyces cerevisiae [2] = assay: microbe, parasite or virus in culture; settings: 48 h
Description: as §1, §2

Zygosaccharomyces bailii = assay: microbe, parasite or virus in culture; settings: 48 h
Description: as §1, §2

Zygosaccharomyces rouxii = assay: microbe, parasite or virus in culture; settings: 48 h
Description: as §1, §2

Escherichia coli = settings: 500 ppm; pH 4.5; 24 hours growth, then plated
Description: (§3) In conducting tests with the model organisms, agar medium for 1 L plates were first prepared having the composition indicated in Table 16.
(§4) In connection with this particular experiment, the pH of the samples was adjusted to a pH value of 4.5 by adding a small amount of 0.1 M HCl. The samples were then sterilized with steam at 121° C. for about 15 minutes. The formulations were allowed to cool to 70° F., after which a sample of 10^6 cells of an aforementioned microorganism, as measured using the optical density of the cells, was applied to 1 mL of the individual solutions. Afterwards, samples were allowed to grow for 24 hours. The solutions were diluted one hundred-fold and 10 microliters were applied to a LB media plate and outgrown for 24 additional hours.

[3] = test system: Lactobacillus acidophilus; settings: 500 ppm; pH 4.5; 24 hours growth, then plated
Description: as §3, §4

Saccharomyces cerevisiae [4] = settings: 1000 ppm (positive control); pH 4.0; 72 hours
Description: Each of the formulations presented above was added to each of the three 20 mL samples of the agar medium.
In connection with this particular experiment, the pH of the samples was adjusted to a pH value of 4.0 by adding a small amount of 0.1 M HCl. The samples were then sterilized with steam at 121° C. for 15 minutes. In one embodiment, 1 mL sample formulations were poured into a 1.5 mL sterile microcentrifuge tube and inoculated with ˜10,000 Saccharomyces cerevisiae cells (e.g., yeast cells). The cells were allowed to grow outwards for 72 hours and then the endpoint concentration of cell growth was determined spectrophotometrically at 660 nm. In samples where cell growth was generally absent cell samples were diluted and counted on a yeast extract peptone dextrose plate. Controls to account for the presence of binder in the absorbance reading were subtracted out in the reporting of the final absorbance. The negative control was diluted twenty times prior to reading the Abs 660 nm.

[5] = pH 3.1, read-out: Percent inhibition
[6] = pH 5.6, read-out: Percent inhibition
[7] = pH 6, read-out: Percent inhibition
[8] = pH 6.5, read-out: Percent inhibition
[9] = pH 7, read-out: Percent inhibition
[10] = pH 7.5, read-out: Percent inhibition

For `O=C(O)C=Cc1ccccc1` [Phenylacrylic Acid, 3-phenyl-2-propenoic acid], the “OD 660 nm” value (Saccharomyces cerevisiae [1]) was 0.51.

For `C/C=C/C=C/C(=O)[O-].[K+]` [Potassium Sorbate], the inhibition at 130 ppm (Candida parapsilosis; [5]) was 0.9%, the inhibition at 250 ppm (Candida parapsilosis; [5]) was 5.2% and the inhibition at 500 ppm (Candida parapsilosis; [5]) was 16.2%. The inhibition at 1000 ppm (Candida parapsilosis; [5]) was 13.5%, the inhibition at 2000 ppm (Candida parapsilosis; [5]) was 6.5% and the inhibition at 130 ppm (Candida parapsilosis; [6]) was 9.5%. It also gave an inhibition at 250 ppm (Candida parapsilosis; [6]) of 12.3%, an inhibition at 500 ppm (Candida parapsilosis; [6]) of 28.7% and an inhibition at 1000 ppm (Candida parapsilosis; [6]) of 32.8%. For the same compound, the inhibition at 2000 ppm (Candida parapsilosis; [6]) was 42.4%, the inhibition at 130 ppm (Candida parapsilosis; [7]) was 5% and the inhibition at 250 ppm (Candida parapsilosis; [7]) was 12.8%. It also gave an inhibition at 500 ppm (Candida parapsilosis; [7]) of 7.6%, an inhibition at 1000 ppm (Candida parapsilosis; [7]) of 4.6% and an inhibition at 2000 ppm (Candida parapsilosis; [7]) of 2.8%. It also gave an inhibition at 130 ppm (Candida parapsilosis; [8]) of 3.3%, an inhibition at 250 ppm (Candida parapsilosis; [8]) of 1.1% and an inhibition at 500 ppm (Candida parapsilosis; [8]) of 0%. The inhibition at 1000 ppm (Candida parapsilosis; [8]) was 0%, the inhibition at 2000 ppm (Candida parapsilosis; [8]) was 0.8% and the inhibition at 130 ppm (Candida parapsilosis; [9]) was 1.7%. For the same compound, the inhibition at 250 ppm (Candida parapsilosis; [9]) was 8.8%, the inhibition at 500 ppm (Candida parapsilosis; [9]) was 15.9% and the inhibition at 1000 ppm (Candida parapsilosis; [9]) was 8.3%. It also gave an inhibition at 2000 ppm (Candida parapsilosis; [9]) of 8.4%, an inhibition at 130 ppm (Candida parapsilosis; [10]) of 6.2% and an inhibition at 250 ppm (Candida parapsilosis; [10]) of 0%. The inhibition at 500 ppm (Candida parapsilosis; [10]) was 0%, the inhibition at 1000 ppm (Candida parapsilosis; [10]) was 0% and the inhibition at 2000 ppm (Candida parapsilosis; [10]) was 7.4%. The inhibition at 130 ppm (Saccharomyces cerevisiae [2]; [5]) was 99.6%, the inhibition at 250 ppm (Saccharomyces cerevisiae [2]; [5]) was 99.4% and the inhibition at 500 ppm (Saccharomyces cerevisiae [2]; [5]) was 99.7%. It also gave an inhibition at 1000 ppm (Saccharomyces cerevisiae [2]; [5]) of 99.8%, an inhibition at 2000 ppm (Saccharomyces cerevisiae [2]; [5]) of 99.3% and an inhibition at 130 ppm (Saccharomyces cerevisiae [2]; [6]) of 84.9%. The inhibition at 250 ppm (Saccharomyces cerevisiae [2]; [6]) was 95.3%, the inhibition at 500 ppm (Saccharomyces cerevisiae [2]; [6]) was 98.1% and the inhibition at 1000 ppm (Saccharomyces cerevisiae [2]; [6]) was 99%. For the same compound, the inhibition at 2000 ppm (Saccharomyces cerevisiae [2]; [6]) was 99.4%, the inhibition at 130 ppm (Saccharomyces cerevisiae [2]; [7]) was 9.9% and the inhibition at 250 ppm (Saccharomyces cerevisiae [2]; [7]) was 25%. For the same compound, the inhibition at 500 ppm (Saccharomyces cerevisiae [2]; [7]) was 50.3%, the inhibition at 1000 ppm (Saccharomyces cerevisiae [2]; [7]) was 62% and the inhibition at 2000 ppm (Saccharomyces cerevisiae [2]; [7]) was 76.2%. For the same compound, the inhibition at 130 ppm (Saccharomyces cerevisiae [2]; [8]) was 17.7%, the inhibition at 250 ppm (Saccharomyces cerevisiae [2]; [8]) was 28.2% and the inhibition at 500 ppm (Saccharomyces cerevisiae [2]; [8]) was 48.1%. It also gave an inhibition at 1000 ppm (Saccharomyces cerevisiae [2]; [8]) of 60.6%, an inhibition at 2000 ppm (Saccharomyces cerevisiae [2]; [8]) of 84.6% and an inhibition at 130 ppm (Saccharomyces cerevisiae [2]; [9]) of 22%. The inhibition at 250 ppm (Saccharomyces cerevisiae [2]; [9]) was 37.9%, the inhibition at 500 ppm (Saccharomyces cerevisiae [2]; [9]) was 53.2% and the inhibition at 1000 ppm (Saccharomyces cerevisiae [2]; [9]) was 69%. It also gave an inhibition at 2000 ppm (Saccharomyces cerevisiae [2]; [9]) of 84.9%, an inhibition at 130 ppm (Saccharomyces cerevisiae [2]; [10]) of 19.4% and an inhibition at 250 ppm (Saccharomyces cerevisiae [2]; [10]) of 44.9%. The inhibition at 500 ppm (Saccharomyces cerevisiae [2]; [10]) was 55.8%, the inhibition at 1000 ppm (Saccharomyces cerevisiae [2]; [10]) was 73.6% and the inhibition at 2000 ppm (Saccharomyces cerevisiae [2]; [10]) was 72.1%. The inhibition at 130 ppm (Zygosaccharomyces bailii; [5]) was 91.9%, the inhibition at 250 ppm (Zygosaccharomyces bailii; [5]) was 96.5% and the inhibition at 500 ppm (Zygosaccharomyces bailii; [5]) was 99.1%. It also gave an inhibition at 1000 ppm (Zygosaccharomyces bailii; [5]) of 99.7%, an inhibition at 2000 ppm (Zygosaccharomyces bailii; [5]) of 100% and an inhibition at 130 ppm (Zygosaccharomyces bailii; [6]) of 70.4%. For the same compound, the inhibition at 250 ppm (Zygosaccharomyces bailii; [6]) was 86.7%, the inhibition at 500 ppm (Zygosaccharomyces bailii; [6]) was 95.6% and the inhibition at 1000 ppm (Zygosaccharomyces bailii; [6]) was 99.7%. For the same compound, the inhibition at 2000 ppm (Zygosaccharomyces bailii; [6]) was 99.8%, the inhibition at 130 ppm (Zygosaccharomyces bailii; [7]) was 0% and the inhibition at 250 ppm (Zygosaccharomyces bailii; [7]) was 0%. It also gave an inhibition at 500 ppm (Zygosaccharomyces bailii; [7]) of 0%, an inhibition at 1000 ppm (Zygosaccharomyces bailii; [7]) of 1.8% and an inhibition at 2000 ppm (Zygosaccharomyces bailii; [7]) of 3%. For the same compound, the inhibition at 130 ppm (Zygosaccharomyces bailii; [8]) was 0%, the inhibition at 250 ppm (Zygosaccharomyces bailii; [8]) was 0% and the inhibition at 500 ppm (Zygosaccharomyces bailii; [8]) was 0%. For the same compound, the inhibition at 1000 ppm (Zygosaccharomyces bailii; [8]) was 0%, the inhibition at 2000 ppm (Zygosaccharomyces bailii; [8]) was 20% and the inhibition at 130 ppm (Zygosaccharomyces bailii; [9]) was 0%. For the same compound, the inhibition at 250 ppm (Zygosaccharomyces bailii; [9]) was 0%, the inhibition at 500 ppm (Zygosaccharomyces bailii; [9]) was 0% and the inhibition at 1000 ppm (Zygosaccharomyces bailii; [9]) was 0%. For the same compound, the inhibition at 2000 ppm (Zygosaccharomyces bailii; [9]) was 16%, the inhibition at 130 ppm (Zygosaccharomyces bailii; [10]) was 9.7% and the inhibition at 250 ppm (Zygosaccharomyces bailii; [10]) was 0%. For the same compound, the inhibition at 500 ppm (Zygosaccharomyces bailii; [10]) was 0%, the inhibition at 1000 ppm (Zygosaccharomyces bailii; [10]) was 0% and the inhibition at 2000 ppm (Zygosaccharomyces bailii; [10]) was 0.3%. For the same compound, the inhibition at 130 ppm (Zygosaccharomyces rouxii; [5]) was 39.3%, the inhibition at 250 ppm (Zygosaccharomyces rouxii; [5]) was 66.7% and the inhibition at 500 ppm (Zygosaccharomyces rouxii; [5]) was 80.4%. The inhibition at 1000 ppm (Zygosaccharomyces rouxii; [5]) was 88.6%, the inhibition at 2000 ppm (Zygosaccharomyces rouxii; [5]) was 84.2% and the inhibition at 130 ppm (Zygosaccharomyces rouxii; [6]) was 93.7%. The inhibition at 250 ppm (Zygosaccharomyces rouxii; [6]) was 95.9%, the inhibition at 500 ppm (Zygosaccharomyces rouxii; [6]) was 37.7% and the inhibition at 1000 ppm (Zygosaccharomyces rouxii; [6]) was 99.3%. For the same compound, the inhibition at 2000 ppm (Zygosaccharomyces rouxii; [6]) was 100%, the inhibition at 130 ppm (Zygosaccharomyces rouxii; [7]) was 0% and the inhibition at 250 ppm (Zygosaccharomyces rouxii; [7]) was 0%. It also gave an inhibition at 500 ppm (Zygosaccharomyces rouxii; [7]) of 3.4%, an inhibition at 1000 ppm (Zygosaccharomyces rouxii; [7]) of 17.4% and an inhibition at 2000 ppm (Zygosaccharomyces rouxii; [7]) of 63.3%. The inhibition at 130 ppm (Zygosaccharomyces rouxii; [8]) was 19.7%, the inhibition at 250 ppm (Zygosaccharomyces rouxii; [8]) was 0% and the inhibition at 500 ppm (Zygosaccharomyces rouxii; [8]) was 6.7%. The inhibition at 1000 ppm (Zygosaccharomyces rouxii; [8]) was 65.6%, the inhibition at 2000 ppm (Zygosaccharomyces rouxii; [8]) was 90.6% and the inhibition at 130 ppm (Zygosaccharomyces rouxii; [9]) was 4.7%. The inhibition at 250 ppm (Zygosaccharomyces rouxii; [9]) was 9.2%, the inhibition at 500 ppm (Zygosaccharomyces rouxii; [9]) was 62.7% and the inhibition at 1000 ppm (Zygosaccharomyces rouxii; [9]) was 86.2%. It also gave an inhibition at 2000 ppm (Zygosaccharomyces rouxii; [9]) of 89.3%, an inhibition at 130 ppm (Zygosaccharomyces rouxii; [10]) of 7.2% and an inhibition at 250 ppm (Zygosaccharomyces rouxii; [10]) of 16.5%. The inhibition at 500 ppm (Zygosaccharomyces rouxii; [10]) was 48.6%, the inhibition at 1000 ppm (Zygosaccharomyces rouxii; [10]) was 74.9% and the inhibition at 2000 ppm (Zygosaccharomyces rouxii; [10]) was 95.2%. The “Escherichia coli cell count” value (Escherichia coli) was 5.49 Log(CFU/mL), the “Lactobacillus acidophilus cell count” value [3] was <2 Log(CFU/mL) and the “Abs 660 nm after 3 days” value (Saccharomyces cerevisiae [4]) was 0.0396 ± 0.005. For the same compound, the “Cell Count after 3 days” value (Saccharomyces cerevisiae [4]) was 5.3 × 10^5 CFU/mL.
